In one assay the test system is BCR-ABL in BaF3 cells. Put plainly: BCR-ABL activation in cells, anti-phospho-Tyr western blot. To be noted: 4 hrs.
Assay [1] has as its system Erk in BCR-ABL-expressing BaF3 cells. Put plainly: Erk activation, western blot. To be noted: BCR-ABL-expressing BaF3 cells but not control cells, 4 hrs. In kind it is cell-based, murine. On the procedure:
Activation and expression of Erk, Mek1, and Raf were determined by western blot. B. Inhibition of Erk decreased the cell survival rates in BaF3 cells expressing BCR-ABL compared to control cells. […] C. […] N=3. Right panel: Western blot results showing that B-Raf was knocked down in these cells.
(In western blotting, separated proteins are transferred to a membrane and probed.)

For assay [2], the system named is DNA topoisomerase. Put plainly: in vitro DNA relaxation reaction with BaF3 cell lysates. In kind it is biochemical, murine. To be noted: 0, 2, 4 or 8 μM, pBluescript. On the procedure: Figure 1 Identification of Bisindolylmaleimide IX as a genotoxic agent and a topoisomerase inhibitor A. The structures of Bisindolylmaleimide IX. B. Bisindolylmaleimide IX induced p53 expression in MEFs and HCT116 cells. Upper panel: primary MEFs were treated with 2.5 μM Bisindolylmaleimide IX for different periods of time and the cells were collected. The levels of p53 were determined by western blot. Bottom panel: HCT116 cells were treated with 2.5 μM Bisindolylmaleimide IX for different periods of time and the cells were collected. The levels of p53 were determined by western blot. C. Bisindolylmaleimide IX induced formation of DNA damage foci for γH2AX and p-Atm in MEFs. Primary MEFs were pretreated with caffeine or solvent for 2 hrs and then with 2.5 μM of Bisindolylmaleimide IX, Bisindolylmaleimide I, or Enzastaurin for 4 more hrs. γH2AX and p-Atm were detected with immunofluorescent staining using specific antibodies. D. Bisindolylmaleimide IX inhibited the topoisomerase activity assayed with pBluescript. DNA samples of pBluescript were incubated with cell lysates of MEFs, which were treated with 0, 4 or 8 μM Bisindolylmaleimide IX before being harvested. DNA samples were analyzed on agarose gels. […] DNA samples of pBluescript were incubated with cell lysates of BaF3 in the presence of 0, 2, 4 or 8 μM Bisindolylmaleimide IX. DNA samples were analyzed on agarose gels. […]

The next assay relates to Vector BaF3 cells. Put plainly: Wst-1 cell survival assay. In kind it is cell-based, murine. The following applies: Mus musculus, Vector BaF3, 24 hrs. The source says: The reference wavelength was 630 nm.
For assay [3], the system named is DNA topoisomerase. Description: DNA relaxation assay with extracts of treated MEFs. In kind it is cell-based, mouse. The following applies: supercoiled pBluescript plasmid DNA as template. On the procedure: Bisindolylmaleimide IX and other derivatives were added to MEF cultures and 24 hrs later, the cells were washed with PBS and harvested in TNE buffer. The control and Bisindolylmaleimide IX-treated cell extracts were directly used to test the topoisomerase activity using a kit from Topogen (Port Orange, USA) following the manufacturer's protocol, or pBluescript DNA as a template. The in vitro incubation lasted 30 min at room temperature. A 2% agarose gel was run to analyze DNA unwinding (Topogen) or 0.8% gel for pBluescript DNA.

A further assay relates to BCR-ABL MEF cells. Put plainly: Wst-1 cell survival assay. The following applies: Mus musculus, 24 h, read-out: IC50, cell survival.
Assay [4] concerns intravenously injected T315I BCR-ABL positive BaF3 cells. Put plainly: Lifespan of nude mice after intravenous cell injection. In kind it is in vivo, mouse. The following applies: 2 or 4 mg/kg every day. On the procedure: (§1) For solid tumor models, the mice were injected with 4 mg / kg of Bisindolylmaleimide IX or solvent. The length (L) and width (W) of the tumor were measured by a digital caliper and expressed as tumor volume (0.5 L×W^2, mm^3). The body weight and the lifespan of the mice with intravenous injection of BaF3 cells were monitored every day. For B-Raf knockdown, lentivirus-mediated expressing shRNA against B-Raf was used.

Assay [5] concerns intravenously injected BCR-ABL positive BaF3 cells. The assay is described as above. In kind it is in vivo, mouse. To be noted: 2 or 4 mg/kg every day. On the procedure: as §1
A further assay addresses Jak2 (Homo sapiens, UniProt O60674). Description: Z'-LYTE in vitro kinase assay. In kind it is biochemical. The following applies: mean ±SEM.
Another assay concerns MEFs. Put plainly: Cell cycle analysis by FACS. In kind it is cell-based, mouse. The following applies: 24 hrs. On the procedure: Cells were seeded on 35-mm dishes and cultured for 24 hrs, reaching 60–70% confluency. The cells were treated with different concentrations of Bisindolylmaleimide IX for 24 or 48 hrs, harvested by trypsinization, resuspended in 200 μl PBS, and fixed in 100% ethanol overnight at 4°C. The fixed cells were pelleted by centrifugation, resuspended in 800 μl PBS containing ribonuclease A (100 μg/ml) and incubated for 30 min at 37°C. Then 10 μl propidium iodide (PI, 4 mg/ml PBS) were added to the samples, which were assessed on a FACSCalibur flow cytometer using Cell Quest software (BD Bioscience).
In general terms: Flow cytometry measures light scatter and fluorescence of single cells or particles in a stream.

The test system of the next assay is BCR-ABL BaF3 cells. Description: cells. To be noted: Mus musculus, BaF3, 24 h, read-out: IC50, cell survival.
For a further assay, the system named is Vector MEF cells. Put plainly: Wst-1 cell survival assay. The following applies: Mus musculus, 24 h, read-out: IC50, cell survival.
Another assay concerns the target T1, MEK1 (Homo sapiens, UniProt Q02750).
T1 construct: made in house; host or cells: Escherichia coli BL21-Codon Plus (DE3)
Description: Z'-LYTE in vitro kinase assay. In kind it is biochemical. On the procedure:
(§2) The recombinant Auror, B-Raf, IKKβ, SYK, BCR-Abl, MEK1 and Erk1 proteins were expressed in Escherichia coli strain BL21-Codon Plus (DE3), purified by Ni-NTA Agarose (QIAGEN). The kinase assays were carried out with the Z'-LYTETM Kinase Assay kit using Ser/Thr3 Peptide substrate (Invitrogen). The reactions were carried out according to the Z-LYTE protocol and the results were read on an EnVision plate reader. All reactions were carried out in triplicate. Data were expressed as mean ±SEM.

For the next assay, the target named is BCR-ABL (Homo sapiens, UniProt P00519). Put plainly: Z'-LYTE in vitro kinase assay. In kind it is biochemical. On the procedure: as §2
Sequence of BCR-ABL (P00519 27-1130): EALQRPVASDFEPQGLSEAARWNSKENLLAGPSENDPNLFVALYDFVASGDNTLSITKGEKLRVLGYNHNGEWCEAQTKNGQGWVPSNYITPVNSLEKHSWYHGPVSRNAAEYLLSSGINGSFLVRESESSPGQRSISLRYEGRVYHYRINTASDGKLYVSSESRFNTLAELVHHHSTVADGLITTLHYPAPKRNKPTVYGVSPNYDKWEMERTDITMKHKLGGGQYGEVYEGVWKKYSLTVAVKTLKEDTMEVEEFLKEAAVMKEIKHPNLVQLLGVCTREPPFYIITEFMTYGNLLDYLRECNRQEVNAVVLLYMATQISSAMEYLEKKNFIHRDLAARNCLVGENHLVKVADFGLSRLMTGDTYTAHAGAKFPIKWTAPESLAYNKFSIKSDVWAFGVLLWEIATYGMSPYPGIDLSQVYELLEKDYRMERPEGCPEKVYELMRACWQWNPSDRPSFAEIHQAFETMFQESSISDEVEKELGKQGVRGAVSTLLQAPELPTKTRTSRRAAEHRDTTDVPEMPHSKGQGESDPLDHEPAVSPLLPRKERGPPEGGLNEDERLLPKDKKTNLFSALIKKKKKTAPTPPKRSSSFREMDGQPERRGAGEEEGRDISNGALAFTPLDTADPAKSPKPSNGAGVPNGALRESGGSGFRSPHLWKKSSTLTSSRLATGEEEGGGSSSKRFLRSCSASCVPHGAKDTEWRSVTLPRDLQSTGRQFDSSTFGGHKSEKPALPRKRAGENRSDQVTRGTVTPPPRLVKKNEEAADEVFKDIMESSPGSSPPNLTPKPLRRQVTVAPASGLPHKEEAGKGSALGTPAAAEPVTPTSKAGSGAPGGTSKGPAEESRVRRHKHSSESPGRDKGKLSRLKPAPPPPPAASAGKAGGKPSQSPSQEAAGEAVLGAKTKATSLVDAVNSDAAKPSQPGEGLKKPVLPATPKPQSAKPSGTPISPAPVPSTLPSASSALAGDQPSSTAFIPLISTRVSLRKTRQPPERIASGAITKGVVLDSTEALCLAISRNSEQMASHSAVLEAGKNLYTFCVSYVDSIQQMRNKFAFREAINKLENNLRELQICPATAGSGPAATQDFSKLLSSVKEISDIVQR
Sequence of BCR-ABL (P11274 1-927 partner): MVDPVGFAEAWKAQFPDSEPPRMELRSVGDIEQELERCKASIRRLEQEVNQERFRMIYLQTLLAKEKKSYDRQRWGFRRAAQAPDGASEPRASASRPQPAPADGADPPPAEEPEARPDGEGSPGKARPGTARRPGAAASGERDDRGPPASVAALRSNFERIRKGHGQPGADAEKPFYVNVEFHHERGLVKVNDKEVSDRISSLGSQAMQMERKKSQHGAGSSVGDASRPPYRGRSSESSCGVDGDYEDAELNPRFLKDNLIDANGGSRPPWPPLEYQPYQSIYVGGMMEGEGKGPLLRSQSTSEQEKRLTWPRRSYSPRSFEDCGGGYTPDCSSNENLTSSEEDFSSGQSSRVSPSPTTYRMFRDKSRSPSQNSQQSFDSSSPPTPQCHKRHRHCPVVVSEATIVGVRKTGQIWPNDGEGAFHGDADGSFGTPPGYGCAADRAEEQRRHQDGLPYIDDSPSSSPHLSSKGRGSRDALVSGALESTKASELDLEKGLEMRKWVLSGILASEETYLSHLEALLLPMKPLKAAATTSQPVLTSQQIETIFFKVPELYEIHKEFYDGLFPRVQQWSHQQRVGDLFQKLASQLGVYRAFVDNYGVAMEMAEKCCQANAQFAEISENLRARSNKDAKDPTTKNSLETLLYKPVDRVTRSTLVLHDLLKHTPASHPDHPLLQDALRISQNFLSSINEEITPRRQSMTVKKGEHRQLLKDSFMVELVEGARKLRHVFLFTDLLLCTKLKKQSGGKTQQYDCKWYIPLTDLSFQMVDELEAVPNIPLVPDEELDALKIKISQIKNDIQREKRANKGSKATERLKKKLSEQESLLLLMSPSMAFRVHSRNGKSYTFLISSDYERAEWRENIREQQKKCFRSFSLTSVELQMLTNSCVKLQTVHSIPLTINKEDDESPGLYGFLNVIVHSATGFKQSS
The next assay addresses T2, ERK1 (Homo sapiens, UniProt P27361).
T2 construct: made in house; host or cells: Escherichia coli BL21-Codon Plus (DE3)
Description: Z'-LYTE in vitro kinase assay. In kind it is biochemical. On the procedure:
as §2

The next assay addresses T3, SYK (Homo sapiens, UniProt P43405).
T3 construct: made in house; host or cells: Escherichia coli BL21-Codon Plus (DE3)
Description: Z'-LYTE in vitro kinase assay. In kind it is biochemical. On the procedure:
as §2

Another assay concerns the target T4, IKKβ (Homo sapiens, UniProt O14920).
T4 construct: made in house; host or cells: Escherichia coli BL21-Codon Plus (DE3)
Put plainly: Z'-LYTE in vitro kinase assay. In kind it is biochemical. The following applies: mean ±SEM. On the procedure: as §2

Another assay deals with T5, B-Raf (Homo sapiens, UniProt P15056).
T5 construct: made in house; host or cells: Escherichia coli BL21-Codon Plus (DE3)
T5 sequence (P15056 whole entry, species assumed): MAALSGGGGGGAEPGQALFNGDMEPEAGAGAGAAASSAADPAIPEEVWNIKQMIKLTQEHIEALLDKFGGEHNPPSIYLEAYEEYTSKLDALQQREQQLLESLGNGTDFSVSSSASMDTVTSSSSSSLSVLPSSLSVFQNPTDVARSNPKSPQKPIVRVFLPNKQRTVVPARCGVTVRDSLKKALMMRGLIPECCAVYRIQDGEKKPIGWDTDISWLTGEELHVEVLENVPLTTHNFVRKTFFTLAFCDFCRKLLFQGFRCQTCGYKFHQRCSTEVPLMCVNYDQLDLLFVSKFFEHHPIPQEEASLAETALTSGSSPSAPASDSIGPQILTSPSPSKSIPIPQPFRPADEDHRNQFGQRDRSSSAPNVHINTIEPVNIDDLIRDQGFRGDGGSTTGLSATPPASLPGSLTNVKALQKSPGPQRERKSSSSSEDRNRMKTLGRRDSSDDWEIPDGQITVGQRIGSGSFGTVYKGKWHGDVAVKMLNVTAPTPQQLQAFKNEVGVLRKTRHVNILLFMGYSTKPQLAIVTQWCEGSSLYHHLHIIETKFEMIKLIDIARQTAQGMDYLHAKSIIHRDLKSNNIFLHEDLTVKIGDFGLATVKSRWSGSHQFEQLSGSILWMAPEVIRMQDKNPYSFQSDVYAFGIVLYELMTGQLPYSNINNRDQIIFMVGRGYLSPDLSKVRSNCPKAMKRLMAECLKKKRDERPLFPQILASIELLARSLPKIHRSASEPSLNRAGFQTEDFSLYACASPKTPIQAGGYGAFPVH
Description: Z'-LYTE in vitro kinase assay. In kind it is biochemical. To be noted: mean ±SEM. On the procedure: as §2

Another assay concerns the target T6, Aurora A (Homo sapiens, UniProt O14965).
T6 construct: made in house; host or cells: Escherichia coli BL21-Codon Plus (DE3)
Put plainly: Z'-LYTE in vitro kinase assay. In kind it is biochemical. To be noted: mean ±SEM. On the procedure: as §2

In the next assay the test system is p53 in HCT116 cells. Put plainly: p53 protein level by western blot. The following applies: HCT116, 2.5 μM, time-dependent. In kind it is cell-based, human.

The structures appear in SMILES notation. Bounds are passed on as bounds.

T4 sequence (O14920 whole entry, species assumed): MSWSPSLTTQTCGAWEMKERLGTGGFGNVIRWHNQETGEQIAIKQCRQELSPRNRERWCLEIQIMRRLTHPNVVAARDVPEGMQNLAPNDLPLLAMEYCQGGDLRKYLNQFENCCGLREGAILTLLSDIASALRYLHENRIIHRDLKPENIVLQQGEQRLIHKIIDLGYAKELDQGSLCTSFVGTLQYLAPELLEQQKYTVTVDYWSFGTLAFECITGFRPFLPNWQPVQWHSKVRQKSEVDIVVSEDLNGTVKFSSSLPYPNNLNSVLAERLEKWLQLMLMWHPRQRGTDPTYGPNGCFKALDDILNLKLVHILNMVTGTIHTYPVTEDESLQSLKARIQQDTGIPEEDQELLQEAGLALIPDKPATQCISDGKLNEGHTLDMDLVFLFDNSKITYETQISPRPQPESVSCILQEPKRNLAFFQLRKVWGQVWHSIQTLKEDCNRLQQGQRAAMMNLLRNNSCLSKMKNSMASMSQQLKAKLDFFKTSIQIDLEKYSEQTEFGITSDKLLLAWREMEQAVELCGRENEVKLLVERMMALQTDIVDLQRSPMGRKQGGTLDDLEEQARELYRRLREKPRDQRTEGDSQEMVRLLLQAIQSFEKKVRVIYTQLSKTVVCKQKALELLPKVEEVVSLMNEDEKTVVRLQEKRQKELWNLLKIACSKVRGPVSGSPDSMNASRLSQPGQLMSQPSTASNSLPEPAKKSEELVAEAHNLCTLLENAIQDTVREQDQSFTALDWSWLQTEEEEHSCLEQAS
T2 sequence (P27361 whole entry, species assumed): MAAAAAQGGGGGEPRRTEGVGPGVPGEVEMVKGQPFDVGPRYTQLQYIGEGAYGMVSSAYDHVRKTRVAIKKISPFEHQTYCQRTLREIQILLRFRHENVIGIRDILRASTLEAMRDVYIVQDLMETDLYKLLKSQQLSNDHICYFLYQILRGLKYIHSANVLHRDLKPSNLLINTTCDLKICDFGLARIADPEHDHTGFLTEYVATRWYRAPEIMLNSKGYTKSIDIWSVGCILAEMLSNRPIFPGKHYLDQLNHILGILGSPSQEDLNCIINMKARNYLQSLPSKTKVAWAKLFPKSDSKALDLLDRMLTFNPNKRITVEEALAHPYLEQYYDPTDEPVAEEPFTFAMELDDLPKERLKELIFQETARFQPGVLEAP
T1 sequence (Q02750 whole entry, species assumed): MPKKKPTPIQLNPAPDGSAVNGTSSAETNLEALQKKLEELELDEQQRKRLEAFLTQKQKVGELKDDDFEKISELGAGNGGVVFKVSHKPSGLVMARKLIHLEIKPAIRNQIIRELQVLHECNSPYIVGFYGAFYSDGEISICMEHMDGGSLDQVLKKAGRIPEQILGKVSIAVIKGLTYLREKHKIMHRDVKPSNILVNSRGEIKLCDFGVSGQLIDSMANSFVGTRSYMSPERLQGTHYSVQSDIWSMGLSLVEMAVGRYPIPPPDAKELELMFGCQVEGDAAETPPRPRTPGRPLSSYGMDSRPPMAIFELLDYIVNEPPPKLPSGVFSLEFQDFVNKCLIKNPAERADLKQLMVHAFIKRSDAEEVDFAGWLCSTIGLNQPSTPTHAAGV
T6 sequence (O14965 whole entry): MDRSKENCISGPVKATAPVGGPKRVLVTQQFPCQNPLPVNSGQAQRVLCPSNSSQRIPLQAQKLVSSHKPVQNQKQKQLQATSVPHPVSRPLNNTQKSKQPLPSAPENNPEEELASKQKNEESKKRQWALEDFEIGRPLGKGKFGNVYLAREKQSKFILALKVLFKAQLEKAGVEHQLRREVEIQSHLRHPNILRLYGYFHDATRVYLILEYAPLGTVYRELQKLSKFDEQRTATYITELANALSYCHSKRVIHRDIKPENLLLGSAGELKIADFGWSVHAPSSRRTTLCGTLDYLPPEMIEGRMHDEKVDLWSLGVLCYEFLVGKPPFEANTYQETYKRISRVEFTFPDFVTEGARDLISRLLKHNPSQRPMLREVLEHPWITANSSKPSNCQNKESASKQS
Description for BCR-ABL MEF cells: (§3) We then evaluated the cytotoxic effect of Bisindolylmaleimide IX in MEFs and HCT116 cells. Different doses of Bisindolylmaleimide IX were applied to the cell cultures and cell survival rates and IC50 were determined with Wst-1 assay.
(§4) To measure cell survival rates after Bisindolylmaleimide IX treatment, cells were plated at 1×10^4 in 96 well plates and cultured for overnight, which were then treated with Bisindolylmaleimide IX for 48 hrs. Cell proliferation reagent WST-1 (Roche) was added to each well and was further incubated for 4 hrs at 37°C. The absorbance was measured against a control using microplate reader at 440 nm. The reference wavelength was 630 nm.
Description for BCR-ABL in BaF3 cells: BaF3 cells infected with empty retrovirus or retrovirus expressing BCR-ABL were treated with different doses of Bisindolylmaleimide IX for 4 hrs. Activation and expression of BCR-ABL were determined by western blot. Activation of BCR-ABL was determined by anti-phospho-Tyr antibodies.
Cells were lysed in TNEN buffer (50 mM Tris, 150 mM NaCl, 5 mM EDTA, 0.5% NP-40, and 0.1% Triton X-100) supplemented with 1 mM NaF, Na2VO3, 1 mM PMSF, and 1 μg/ml of aprotonin, leupeptin, and pepstatin A. Protein concentrations were determined using a Bio-Rad assay. Proteins were resolved by SDS-PAGE and transferred to polyvinylidene difluoride membranes (Millipore). […] Antibodies against p-Tyr were from Merck Millipore Corporation.
Description for Vector MEF cells: as §3, §4

Turning to `CS(=O)(=O)O.Cn1cc(C2=C(c3cn(CCCSC(=N)N)c4ccccc34)C(=O)NC2=O)c2ccccc21` [Bisindolylmaleimide IX, 3-[1-[3-(Amidinothio)propyl]-3-indolyl]-4-(1-methyl-3-indolyl)-1H-pyrrole-2,5-dione methanesulfonate], in the assay on BCR-ABL in BaF3 cells, the “inhibitory effect on BCR-ABL activity in vivo (in cells)” value is “negligible inhibitory effect”. Besides, in [1], the Erk activation entry is on record as “inhibited Erk activation”. For the same molecule, the “topoisomerase activity on addition to the in vitro DNA relaxation reaction” value in the assay with DNA topoisomerase [2] is reported as “inhibit the topoisomerase activity”. Further, the 50% inhibitory concentration (IC50) (commonly the point on the concentration scale where inhibition reaches its midpoint) with Vector BaF3 cells was above 8 µM; in the assay on BCR-ABL MEF cells it was 3.46 µM; at Jak2, 9.68 ± 0.79 µM; in the assay with BCR-ABL BaF3 cells it was 3.26 µM; in the assay on Vector MEF cells, 7.37 µM; on MEK1, above 45 µM. Also, the IC50 against BCR-ABL (in vitro kinase assay) was above 45 µM; on ERK1, above 45 µM; against SYK, above 45 µM; against IKKβ, 0.48 ± 0.005 µM; against B-Raf, 1.14 ± 0.11 µM; at Aurora A it was above 45 µM. Besides, the “DNA relaxation (topoisomerase) activity of extract from treated cells” value in the assay on DNA topoisomerase [3] is given as “partially lost this activity”. Also, the “lifespan of the mice” value in assay [4] and in [5] was “extend the lifespan” each time. Further, in the assay on MEFs, the cell cycle profile entry is “increase in G2/M phase cells and a decrease in S phase cells”. Moreover, the “concentration needed to inhibit BCR-ABL in in vitro kinase assays” value at BCR-ABL turned out to be 45 µM. For the same molecule, the p53 expression entry in the assay with p53 in HCT116 cells was “induce p53 expression”.

(Values after paper PMC5342526, “Identification of Bisindolylmaleimide IX as a potential agent to treat drug-resistant BCR-ABL positive leukemia” (Oncotarget, 2016).)
